# From ChEMBL document CHEMBL3400015, “Tertiary amides of Salinomycin: A new group of antibacterial agents against Bacillus anthracis and methicillin-resistant Staphylococcus epidermidis” (Bioorg Med Chem Lett, 2015)
# Legend:
# Format in all cases: functional
# Staphylococcus aureus [1] = test: Antimicrobial activity against Staphylococcus aureus […] after 18 hrs by twofold serial broth dilution method
# [2] = test system: Staphylococcus epidermidis; test: Bactericidal activity against methicillin-resistant Staphylococcus epidermidis isolate 424/10 after 24 hrs; details: isolate 424/10, 24 h, read-out: MBC99.9
# Staphylococcus aureus [3] = test: Bactericidal activity against Staphylococcus aureus […] after 24 hrs; details: read-out: MBC99.9
# [4] = test system: Staphylococcus epidermidis; test: Bactericidal activity against methicillin-resistant Staphylococcus epidermidis isolate 458/11 after 24 hrs; details: isolate 458/11, 24 h, read-out: MBC99.9
# Pseudomonas aeruginosa [5] = test: Antimicrobial activity against Pseudomonas aeruginosa NCTC 6749 after 18 hrs by twofold serial broth dilution method; details: NCTC 6749, 18 h
# [6] = test system: Staphylococcus epidermidis; test: Antimicrobial activity against methicillin-resistant Staphylococcus epidermidis isolate 407/10 after 18 hrs by twofold serial broth dilution method; details: isolate 407/10, 18 h
# [7] = test system: Staphylococcus epidermidis; test: Bactericidal activity against Staphylococcus epidermidis ATCC 12228 after 24 hrs; details: ATCC 12228, 24 h, read-out: MBC99.9
# [8] = test system: Staphylococcus epidermidis; test: Bactericidal activity against methicillin-resistant Staphylococcus epidermidis isolate 454/11 after 24 hrs; details: isolate 454/11, 24 h, read-out: MBC99.9
# Staphylococcus aureus [9] = test: Antimicrobial activity against Staphylococcus aureus ATCC 6538 after 18 hrs by twofold serial broth dilution method; details: ATCC 6538, 18 h
# Pseudomonas aeruginosa [10] = test: Bactericidal activity against Pseudomonas aeruginosa ATCC 27853 after 24 hrs; details: ATCC 27853, 24 h, read-out: MBC99.9
# [11] = test system: Staphylococcus epidermidis; test: Antimicrobial activity against methicillin-resistant Staphylococcus epidermidis isolate 424/10 after 18 hrs by twofold serial broth dilution method; details: isolate 424/10, 18 h
# [12] = test system: Staphylococcus epidermidis; test: Bactericidal activity against methicillin-resistant Staphylococcus epidermidis isolate 470/11 after 24 hrs; details: isolate 470/11, 24 h, read-out: MBC99.9
# [13] = test system: Staphylococcus epidermidis; test: Antimicrobial activity against methicillin-resistant Staphylococcus epidermidis isolate 405/10 after 18 hrs by twofold serial broth dilution method; details: isolate 405/10, 18 h
# Escherichia coli = test: Bactericidal activity against Escherichia coli NCTC 8196 after 24 hrs; details: NCTC 8196, 24 h, read-out: MBC99.9
# [14] = test system: Staphylococcus epidermidis; test: Antimicrobial activity against methicillin-resistant Staphylococcus epidermidis isolate 458/11 after 18 hrs by twofold serial broth dilution method; details: isolate 458/11, 18 h
# [15] = test system: Staphylococcus epidermidis; test: Antimicrobial activity against methicillin-resistant Staphylococcus epidermidis isolate 409/10 after 18 hrs by twofold serial broth dilution method; details: isolate 409/10, 18 h
# Pseudomonas aeruginosa [16] = test: Bactericidal activity against Pseudomonas aeruginosa NCTC 6749 after 24 hrs; details: NCTC 6749, 24 h, read-out: MBC99.9
# [17] = test system: Staphylococcus epidermidis; test: Antimicrobial activity against methicillin-resistant Staphylococcus epidermidis isolate 404/10 after 18 hrs by twofold serial broth dilution method; details: isolate 404/10, 18 h
# [18] = test system: Staphylococcus epidermidis; test: Antimicrobial activity against methicillin-resistant Staphylococcus epidermidis isolate 455/11 after 18 hrs by twofold serial broth dilution method; details: isolate 455/11, 18 h
# [19] = test system: Staphylococcus epidermidis; test: Antimicrobial activity against Staphylococcus epidermidis ATCC 12228 after 18 hrs by twofold serial broth dilution method; details: ATCC 12228, 18 h
# [20] = test system: Staphylococcus epidermidis; test: Antimicrobial activity against methicillin-resistant Staphylococcus epidermidis isolate 403/10 after 18 hrs by twofold serial broth dilution method; details: isolate 403/10, 18 h
# [21] = test system: Staphylococcus epidermidis; test: Bactericidal activity against methicillin-resistant Staphylococcus epidermidis isolate 403/10 after 24 hrs; details: isolate 403/10, 24 h, read-out: MBC99.9
# [22] = test system: Staphylococcus epidermidis; test: Bactericidal activity against methicillin-resistant Staphylococcus epidermidis isolate 404/10 after 24 hrs; details: isolate 404/10, 24 h, read-out: MBC99.9
# [23] = test system: Staphylococcus epidermidis; test: Bactericidal activity against methicillin-resistant Staphylococcus epidermidis isolate 459/11 after 24 hrs; details: isolate 459/11, 24 h, read-out: MBC99.9
# [24] = test system: Staphylococcus epidermidis; test: Bactericidal activity against methicillin-resistant Staphylococcus epidermidis isolate 460/11 after 24 hrs; details: isolate 460/11, 24 h, read-out: MBC99.9
# [25] = test system: Staphylococcus epidermidis; test: Antimicrobial activity against Staphylococcus epidermidis ATCC 35984 after 18 hrs by twofold serial broth dilution method; details: ATCC 35984, 18 h
# [26] = test system: Staphylococcus epidermidis; test: Bactericidal activity against methicillin-resistant Staphylococcus epidermidis isolate 455/11 after 24 hrs; details: isolate 455/11, 24 h, read-out: MBC99.9
# [27] = test system: Staphylococcus epidermidis; test: Antimicrobial activity against methicillin-resistant Staphylococcus epidermidis isolate 470/11 after 18 hrs by twofold serial broth dilution method; details: isolate 470/11, 18 h
# [28] = test system: Staphylococcus epidermidis; test: Antimicrobial activity against methicillin-resistant Staphylococcus epidermidis isolate 422/10 after 18 hrs by twofold serial broth dilution method; details: isolate 422/10, 18 h
# [29] = test system: Staphylococcus epidermidis; test: Antimicrobial activity against methicillin-resistant Staphylococcus epidermidis isolate 459/11 after 18 hrs by twofold serial broth dilution method; details: isolate 459/11, 18 h
# [30] = test system: Staphylococcus epidermidis; test: Antimicrobial activity against methicillin-resistant Staphylococcus epidermidis isolate 460/11 after 18 hrs by twofold serial broth dilution method; details: isolate 460/11, 18 h
# [31] = test system: Staphylococcus epidermidis; test: Bactericidal activity against methicillin-resistant Staphylococcus epidermidis isolate 407/10 after 24 hrs; details: isolate 407/10, 24 h, read-out: MBC99.9
# [32] = test system: Staphylococcus epidermidis; test: Antimicrobial activity against methicillin-resistant Staphylococcus epidermidis isolate 454/11 after 18 hrs by twofold serial broth dilution method; details: isolate 454/11, 18 h
# Staphylococcus aureus [33] = test: Bactericidal activity against Staphylococcus aureus ATCC 25923 after 24 hrs; details: ATCC 25923, 24 h, read-out: MBC99.9
# [34] = test system: Staphylococcus epidermidis; test: Antimicrobial activity against methicillin-resistant Staphylococcus epidermidis isolate 457/11 after 18 hrs by twofold serial broth dilution method; details: isolate 457/11, 18 h
# [35] = test system: Staphylococcus epidermidis; test: Antimicrobial activity against methicillin-resistant Staphylococcus epidermidis isolate 461/11 after 18 hrs by twofold serial broth dilution method; details: isolate 461/11, 18 h
# [36] = test system: Staphylococcus epidermidis; test: Bactericidal activity against Staphylococcus epidermidis ATCC 35984 after 24 hrs; details: ATCC 35984, 24 h, read-out: MBC99.9
structure (smiles),measurement,setting,value
O=C(O)c1cn(C2CC2)c2cc(N3CCNCC3)c(F)cc2c1=O [CIPROFLOXACIN],MIC,Staphylococcus aureus [1],0.5 µg/mL
same,MBC,[2],256 µg/mL
same,MBC,Staphylococcus aureus [3],2 µg/mL
same,MBC,[4],> 256 µg/mL
same,MIC,Pseudomonas aeruginosa [5],0.0625 µg/mL
same,MIC,[6],64 µg/mL
same,MBC,[7],1 µg/mL
same,MBC,[8],0.25 µg/mL
same,MIC,Staphylococcus aureus [9],0.25 µg/mL
same,MBC,Pseudomonas aeruginosa [10],0.25 µg/mL
same,MIC,[11],8 µg/mL
same,MBC,[12],0.5 µg/mL
same,MIC,[13],2 µg/mL
same,MBC,Escherichia coli,0.0016 µg/mL
same,MIC,[14],32 µg/mL
same,MIC,[15],2 µg/mL
same,MBC,Pseudomonas aeruginosa [16],0.125 µg/mL
same,MIC,[17],32 µg/mL
same,MIC,[18],32 µg/mL
same,MIC,[19],0.25 µg/mL
same,MIC,[20],8 µg/mL
same,MBC,[21],128 µg/mL
same,MBC,[22],> 256 µg/mL
same,MBC,[23],> 256 µg/mL
same,MBC,[24],0.5 µg/mL
same,MIC,[25],0.125 µg/mL
same,MBC,[26],> 256 µg/mL
same,MIC,[27],0.125 µg/mL
same,MIC,[28],2 µg/mL
same,MIC,[29],32 µg/mL
same,MIC,[30],0.125 µg/mL
same,MBC,[31],> 256 µg/mL
same,MIC,[32],0.0625 µg/mL
same,MBC,Staphylococcus aureus [33],2 µg/mL
same,MIC,[34],32 µg/mL
same,MIC,[35],0.25 µg/mL
same,MBC,[36],0.5 µg/mL
